SMILES strings stand for the structures. Where “and” joins values, the source holds several entries; their conditions need not be identical. Equal entries are not always repeated. Calls of active or inactive are those of the source.

This is an account of results in ChEMBL document CHEMBL1201862, “PubChem BioAssay data set” (2004).

Experiment [1] addresses Glycogen synthase kinase-3 alpha (Homo sapiens, UniProt P49840). The experiment in a line: Inhibition of Human GSK-3 alpha Activity Measured in Biochemical System Using Microfluidics - 2063-06_Inhibitor_Dose_DryPowder_Activity. [Related pubchem assays (depositor defined):AID2709].
Experiment [2] addresses Glycogen synthase kinase-3 beta (Homo sapiens, UniProt P49841). Briefly: Inhibition of Human GSK-3 beta Activity Measured in Biochemical System Using Microfluidics - 2063-05_Inhibitor_Dose_DryPowder_Activity. [Related pubchem assays (depositor defined):AID2709].
In the next experiment the test system is Escherichia coli. The experiment in a line: microbe, parasite or virus in culture.
Experiment [3] has as its target T1, RNA-binding protein pos-1 (Caenorhabditis elegans, UniProt G5EF15).
T1 sequence (G5EF15 whole entry): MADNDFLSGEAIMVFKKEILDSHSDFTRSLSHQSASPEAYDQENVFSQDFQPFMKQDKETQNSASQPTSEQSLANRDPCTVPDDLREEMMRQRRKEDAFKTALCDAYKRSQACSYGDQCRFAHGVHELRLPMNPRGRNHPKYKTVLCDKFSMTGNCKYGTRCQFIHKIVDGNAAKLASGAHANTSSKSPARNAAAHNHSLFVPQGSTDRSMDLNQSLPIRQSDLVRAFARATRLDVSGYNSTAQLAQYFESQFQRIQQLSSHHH
The experiment in a line: inhibitors of POS-1/mex-3 RNA binding, dose response, biochemical, fluorescence polarization (AID 1964).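 Also: purified POS-1 fused to maltose binding protein made in E. coli; potency of compounds blocking POS-1 binding to fluorescent RNA.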

Experiment [4] has as its target Long-chain-fatty-acid--AMP ligase FadD28 (Mycobacterium tuberculosis, UniProt P9WQ59). The experiment in a line: Fluorescence polarization aasay to screen for inhibitors that compete for the binding of FadD28 to a bisubstrate Measured in Biochemical System Using Plate Reader - 2147-01_Inhibitor_Dose_CherryPick_Activity. Type of experiment: functional, Mycobacterium tuberculosis H37Rv.

Experiment [5] concerns the target T2, Zinc finger protein mex-5 (Caenorhabditis elegans, UniProt Q9XUB2).
T2 sequence (Q9XUB2 whole entry): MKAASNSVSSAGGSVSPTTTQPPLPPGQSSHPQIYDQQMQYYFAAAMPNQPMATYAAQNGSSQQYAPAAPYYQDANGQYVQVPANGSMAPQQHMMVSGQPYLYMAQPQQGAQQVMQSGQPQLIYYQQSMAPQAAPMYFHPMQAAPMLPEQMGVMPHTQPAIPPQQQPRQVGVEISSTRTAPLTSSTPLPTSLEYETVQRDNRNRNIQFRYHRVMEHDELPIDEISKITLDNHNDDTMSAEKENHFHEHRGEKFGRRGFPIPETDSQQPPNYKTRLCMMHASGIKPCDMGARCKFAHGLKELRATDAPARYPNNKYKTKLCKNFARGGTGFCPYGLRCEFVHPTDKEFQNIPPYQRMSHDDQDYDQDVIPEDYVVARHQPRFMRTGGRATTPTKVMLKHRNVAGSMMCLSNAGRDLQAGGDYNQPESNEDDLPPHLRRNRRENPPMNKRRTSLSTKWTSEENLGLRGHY
The experiment in a line: MEX-5/TCR-2 RNA interaction inhibitors, dose response, biochemical, C. elegans, fluorescence polarization (AID 1960).

Another experiment has as its target Beta-arrestin-1 (Homo sapiens, UniProt P49407). The experiment in a line: inhibitors of arrestin peptide binding to AP2, dose response, biochemical, cherry pick 1, beta2-adaptin appendage, flow cytometry (AID 588783). Type of experiment: functional. On the technique in general: A flow cytometer gives signals particle by particle.
The target in experiment [6] is T3, Apoptotic protease-activating factor 1 (Homo sapiens, UniProt O14727).
T3 sequence (O14727 whole entry): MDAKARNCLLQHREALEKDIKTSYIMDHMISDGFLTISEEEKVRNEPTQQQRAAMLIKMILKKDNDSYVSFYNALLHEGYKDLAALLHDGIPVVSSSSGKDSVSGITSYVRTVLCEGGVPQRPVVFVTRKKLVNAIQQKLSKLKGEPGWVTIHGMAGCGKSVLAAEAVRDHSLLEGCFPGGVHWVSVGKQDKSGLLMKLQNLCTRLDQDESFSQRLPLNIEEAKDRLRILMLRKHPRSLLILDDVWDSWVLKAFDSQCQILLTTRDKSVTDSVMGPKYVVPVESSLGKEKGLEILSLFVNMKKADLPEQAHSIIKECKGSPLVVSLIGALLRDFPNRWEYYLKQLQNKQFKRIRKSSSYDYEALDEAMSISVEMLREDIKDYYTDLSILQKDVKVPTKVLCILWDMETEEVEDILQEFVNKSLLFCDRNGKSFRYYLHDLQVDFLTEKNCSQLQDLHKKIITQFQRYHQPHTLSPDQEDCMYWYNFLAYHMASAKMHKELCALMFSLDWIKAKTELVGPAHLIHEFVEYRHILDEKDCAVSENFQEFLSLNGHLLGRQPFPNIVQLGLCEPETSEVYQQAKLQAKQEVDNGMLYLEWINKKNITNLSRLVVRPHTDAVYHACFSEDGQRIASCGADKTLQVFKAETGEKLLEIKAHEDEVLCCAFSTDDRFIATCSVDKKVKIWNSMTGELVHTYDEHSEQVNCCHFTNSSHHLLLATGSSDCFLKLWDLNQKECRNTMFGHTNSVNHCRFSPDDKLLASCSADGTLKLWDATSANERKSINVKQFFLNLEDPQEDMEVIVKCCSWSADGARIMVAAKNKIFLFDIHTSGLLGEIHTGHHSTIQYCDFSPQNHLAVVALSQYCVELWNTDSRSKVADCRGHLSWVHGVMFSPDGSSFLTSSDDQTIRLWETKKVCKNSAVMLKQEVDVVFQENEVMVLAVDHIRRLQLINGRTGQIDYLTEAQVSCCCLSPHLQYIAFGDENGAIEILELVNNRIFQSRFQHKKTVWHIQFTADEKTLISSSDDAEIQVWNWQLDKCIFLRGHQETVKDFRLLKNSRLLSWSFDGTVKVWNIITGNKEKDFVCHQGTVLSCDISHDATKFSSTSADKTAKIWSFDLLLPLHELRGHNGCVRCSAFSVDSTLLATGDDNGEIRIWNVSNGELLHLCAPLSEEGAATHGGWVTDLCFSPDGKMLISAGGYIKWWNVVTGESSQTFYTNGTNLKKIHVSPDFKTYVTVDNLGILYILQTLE
Type of experiment: functional.

Experiment [7] deals with Delta-type opioid receptor (Homo sapiens, UniProt P41143). Briefly: Counterscreen for agonists of heterodimerization of the mu 1 (OPRM1) and delta 1 (OPRD1) opioid receptors: Luminescence-based cell-based high throughput dose response assay to identify agonists of OPRD1 homodimerization. [Related pubchem assays (depositor defined):AID504326, AID504355, AID504692, AID504904, AID504905]. Type of experiment: functional. (In general: A counterscreen serves to expose hits that act by an unwanted route or on another target.)

Experiment [8] deals with Opioid receptors; mu & delta (Homo sapiens, UniProt P41143+P35372). Briefly: agonists of MOR-DOR heterodimerization, dose response, cell-based, luminescence (AID 588407). Type of experiment: functional.
The target of experiment [9] is 5-hydroxytryptamine receptor 5A (Homo sapiens, UniProt P47898). The experiment in a line: Counterscreen for agonists of OPRM1-OPRD1 heterodimerization: luminescence-based cell-based high throughput dose response assay to identify agonists of 5-hydroxytryptamine (serotonin) 5A receptor (HTR5A). [Related pubchem assays (depositor defined):AID504326, AID504355, AID504692, AID504904, AID504905]. Type of experiment: functional.

A further experiment has as its target Mu-type opioid receptor (Homo sapiens, UniProt P35372). Briefly: Counterscreen for agonists of heterodimerization of the mu 1 (OPRM1) and delta 1 (OPRD1) opioid receptors: Luminescence-based cell-based high throughput dose response assay to identify agonists of OPRM1 homodimerization. Type of experiment: functional.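 Also: U2OS cells expressing OPRM1 and beta-arrestin as split beta-galactosidase partners.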
For experiment [10], the target named is Beta-2 adrenergic receptor (Homo sapiens, UniProt P07550). The experiment in a line: beta2AR agonists driving receptor internalization, dose response, cell-based, FAP fluorogen, flow cytometry, cherry pick 1 (AID 588763). Type of experiment: functional.
The next experiment addresses Hexokinase-1 (Homo sapiens, UniProt P19367). Briefly: SAR analysis of small molecule inhibitors of hexokinase domain containing I (HKDC1) in the hexokinase 1 selectivity assay. [Related pubchem assays (depositor defined):AID493160, AID493190]. Type of experiment: functional.
A further experiment addresses T4, Hexokinase HKDC1 (Homo sapiens, UniProt Q2TB90).
T4 sequence (Q2TB90 whole entry): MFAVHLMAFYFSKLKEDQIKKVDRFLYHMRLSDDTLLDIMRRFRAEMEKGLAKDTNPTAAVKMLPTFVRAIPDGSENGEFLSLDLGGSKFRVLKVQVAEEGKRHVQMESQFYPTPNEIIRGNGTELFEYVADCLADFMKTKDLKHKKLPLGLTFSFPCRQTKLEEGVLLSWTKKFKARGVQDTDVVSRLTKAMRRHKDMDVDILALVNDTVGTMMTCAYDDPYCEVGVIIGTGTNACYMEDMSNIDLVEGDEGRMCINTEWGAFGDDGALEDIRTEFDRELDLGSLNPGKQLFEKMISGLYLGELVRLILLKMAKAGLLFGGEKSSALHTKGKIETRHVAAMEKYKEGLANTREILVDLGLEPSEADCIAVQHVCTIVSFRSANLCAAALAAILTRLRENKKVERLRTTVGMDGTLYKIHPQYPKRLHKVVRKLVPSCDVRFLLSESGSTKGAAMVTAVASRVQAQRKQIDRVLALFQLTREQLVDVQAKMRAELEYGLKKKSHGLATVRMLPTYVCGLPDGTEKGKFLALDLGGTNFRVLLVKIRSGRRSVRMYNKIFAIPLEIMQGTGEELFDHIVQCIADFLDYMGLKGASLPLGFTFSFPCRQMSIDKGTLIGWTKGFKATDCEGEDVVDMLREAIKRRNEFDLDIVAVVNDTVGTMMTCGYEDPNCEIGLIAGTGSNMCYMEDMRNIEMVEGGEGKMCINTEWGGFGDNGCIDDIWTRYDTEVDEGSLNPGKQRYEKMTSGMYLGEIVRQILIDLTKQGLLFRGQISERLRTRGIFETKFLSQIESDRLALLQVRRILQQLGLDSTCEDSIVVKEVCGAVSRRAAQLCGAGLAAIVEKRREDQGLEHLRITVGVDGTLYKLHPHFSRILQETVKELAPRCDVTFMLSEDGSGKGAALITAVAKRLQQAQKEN
Briefly: SAR analysis of small molecule inhibitors of hexokinase domain containing I (HKDC1). [Related pubchem assays (depositor defined):AID493160, AID493190]. Type of experiment: functional.

The nature of experiment [11]: Vero cell cytotoxicity, dose response, cytotoxicity control for Vif-APOBEC3G degradation inhibitor project, Vero cells (AID 1117358). Type of experiment: functional. To be noted: Human immunodeficiency virus 1, Vero.
The target in experiment [12] is Dual specificity protein kinase CLK1 (Homo sapiens, UniProt P49759). The experiment in a line: CLK1 kinase inhibitors, off-target check, dose response, selectivity assay for Dyrk1A inhibitor project, biochemical, cherry-picked samples (AID 588811).
Experiment [13] has as its target Dual specificity tyrosine-phosphorylation-regulated kinase 1A (Rattus norvegicus, UniProt Q63470). Type of experiment: biochemical, Homo sapiens.
A short description of experiment [14]: cytotoxicity in HEK-293T cells, dose response, cytotoxicity control for BCR NF-kB inhibitor project, luminescence, B-cell screen hits (AID 489021).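 Also: HEK-293T cells carrying an NF-kB luciferase reporter; cells exposed to compound for about 14 hours before viability readout.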 Type of experiment: functional, cell-based.
In experiment [15] the test system is HEK293. Briefly: cytotoxicity in HEK293T NF-kB-Luc cells, SAR follow-up, cytotoxicity control for NF-kB activator project, cell-based, resazurin fluorescence (AID 493251). Type of experiment: functional. To be noted: Homo sapiens.
Experiment [16] relates to HEK293. The experiment in a line: SAR Analysis of small molecule inhibitors of T-cell specific antigen receptor-induced NF-kB activation in a HEK-293T cell line using a luminescence assay - Set 2. [Related pubchem assays (depositor defined):AID435003, AID435012, AID489026]. Type of experiment: functional, cell-based. To be noted: Homo sapiens.
For another experiment, the system named is Jurkat. The experiment in a line: SAR Analysis of small molecule inhibitors of T-cell specific antigen receptor-induced NF-kB activation in a Jurkat cell line using a luminescence assay - Set 2. [Related pubchem assays (depositor defined):AID435003, AID435012, AID465]. Type of experiment: functional, cell-based. To be noted: Homo sapiens.

Chain of Beta-2 adrenergic receptor (P07550 whole entry, the tested form may be a part): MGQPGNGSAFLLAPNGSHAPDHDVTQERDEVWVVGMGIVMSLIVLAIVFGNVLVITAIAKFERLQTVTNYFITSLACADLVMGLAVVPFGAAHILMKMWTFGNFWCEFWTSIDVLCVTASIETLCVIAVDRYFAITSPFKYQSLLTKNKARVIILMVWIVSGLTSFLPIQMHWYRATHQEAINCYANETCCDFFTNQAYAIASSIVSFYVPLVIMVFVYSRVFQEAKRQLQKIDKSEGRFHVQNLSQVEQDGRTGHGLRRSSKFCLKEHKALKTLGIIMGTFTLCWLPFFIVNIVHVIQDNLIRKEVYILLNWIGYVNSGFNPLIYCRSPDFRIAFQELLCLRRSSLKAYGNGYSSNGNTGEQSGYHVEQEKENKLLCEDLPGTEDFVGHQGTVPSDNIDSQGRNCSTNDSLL
Chain of Hexokinase-1 (P19367 whole entry, the tested form may be a part): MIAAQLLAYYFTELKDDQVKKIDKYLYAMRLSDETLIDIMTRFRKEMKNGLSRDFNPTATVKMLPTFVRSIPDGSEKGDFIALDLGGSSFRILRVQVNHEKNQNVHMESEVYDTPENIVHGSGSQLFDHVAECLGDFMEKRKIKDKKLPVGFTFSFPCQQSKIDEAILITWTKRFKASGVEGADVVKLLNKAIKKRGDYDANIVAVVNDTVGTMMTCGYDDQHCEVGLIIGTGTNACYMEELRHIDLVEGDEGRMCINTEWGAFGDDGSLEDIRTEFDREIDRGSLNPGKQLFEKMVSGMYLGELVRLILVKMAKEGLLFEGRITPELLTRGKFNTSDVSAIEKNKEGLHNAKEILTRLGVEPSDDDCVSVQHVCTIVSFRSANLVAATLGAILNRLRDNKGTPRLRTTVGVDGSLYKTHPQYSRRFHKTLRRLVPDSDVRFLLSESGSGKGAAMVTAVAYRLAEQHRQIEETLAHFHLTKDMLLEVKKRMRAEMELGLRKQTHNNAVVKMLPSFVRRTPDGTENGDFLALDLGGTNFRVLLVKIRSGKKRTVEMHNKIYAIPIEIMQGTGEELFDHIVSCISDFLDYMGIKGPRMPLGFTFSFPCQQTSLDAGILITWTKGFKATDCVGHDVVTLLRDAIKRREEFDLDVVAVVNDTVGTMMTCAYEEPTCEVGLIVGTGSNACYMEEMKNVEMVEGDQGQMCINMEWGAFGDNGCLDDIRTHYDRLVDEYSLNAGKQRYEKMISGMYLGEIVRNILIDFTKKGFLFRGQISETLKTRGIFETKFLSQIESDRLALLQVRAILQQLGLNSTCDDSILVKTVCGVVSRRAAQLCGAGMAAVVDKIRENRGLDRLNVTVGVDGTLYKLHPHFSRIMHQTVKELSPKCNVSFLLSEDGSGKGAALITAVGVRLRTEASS
Chain of Long-chain-fatty-acid--AMP ligase FadD28 (P9WQ59 whole entry): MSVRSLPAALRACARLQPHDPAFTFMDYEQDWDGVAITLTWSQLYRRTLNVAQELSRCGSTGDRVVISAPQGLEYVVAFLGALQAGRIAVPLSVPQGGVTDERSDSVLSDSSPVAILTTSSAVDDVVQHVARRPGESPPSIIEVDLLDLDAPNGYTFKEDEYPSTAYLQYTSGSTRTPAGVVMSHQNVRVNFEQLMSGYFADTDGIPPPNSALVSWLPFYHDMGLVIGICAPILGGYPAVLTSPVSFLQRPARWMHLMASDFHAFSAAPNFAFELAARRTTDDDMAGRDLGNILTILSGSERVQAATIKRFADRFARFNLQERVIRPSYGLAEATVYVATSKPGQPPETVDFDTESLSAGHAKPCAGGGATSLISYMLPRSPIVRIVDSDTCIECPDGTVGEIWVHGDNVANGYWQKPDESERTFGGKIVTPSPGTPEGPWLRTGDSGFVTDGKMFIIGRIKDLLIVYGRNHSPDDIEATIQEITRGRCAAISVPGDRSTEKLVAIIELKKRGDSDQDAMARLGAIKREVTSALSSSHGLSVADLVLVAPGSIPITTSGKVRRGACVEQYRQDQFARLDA
Chain of Dual specificity protein kinase CLK1 (P49759 whole entry): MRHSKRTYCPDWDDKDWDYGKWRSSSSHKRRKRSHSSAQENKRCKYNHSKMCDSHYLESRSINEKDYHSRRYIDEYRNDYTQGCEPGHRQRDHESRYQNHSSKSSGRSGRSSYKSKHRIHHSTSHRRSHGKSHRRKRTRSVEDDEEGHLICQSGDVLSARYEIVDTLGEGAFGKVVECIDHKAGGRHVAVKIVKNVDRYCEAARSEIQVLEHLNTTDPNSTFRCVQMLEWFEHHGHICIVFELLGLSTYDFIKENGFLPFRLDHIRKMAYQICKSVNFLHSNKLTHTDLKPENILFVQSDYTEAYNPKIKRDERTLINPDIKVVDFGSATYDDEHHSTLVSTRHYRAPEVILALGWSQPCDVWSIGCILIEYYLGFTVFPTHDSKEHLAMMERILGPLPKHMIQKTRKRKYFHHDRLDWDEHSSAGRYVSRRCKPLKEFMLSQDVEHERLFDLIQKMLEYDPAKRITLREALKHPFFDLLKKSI
Chain of 5-hydroxytryptamine receptor 5A (P47898 whole entry): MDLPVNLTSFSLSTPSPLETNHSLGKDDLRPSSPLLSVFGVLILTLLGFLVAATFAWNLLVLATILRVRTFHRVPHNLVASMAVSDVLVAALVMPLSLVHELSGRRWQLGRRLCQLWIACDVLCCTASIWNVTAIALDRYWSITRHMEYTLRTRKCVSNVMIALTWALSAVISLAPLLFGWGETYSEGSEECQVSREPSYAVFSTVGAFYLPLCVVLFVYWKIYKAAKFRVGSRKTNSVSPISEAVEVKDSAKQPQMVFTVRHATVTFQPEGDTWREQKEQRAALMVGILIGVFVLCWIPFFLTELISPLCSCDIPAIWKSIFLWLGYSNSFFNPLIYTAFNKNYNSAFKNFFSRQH
Chain of Glycogen synthase kinase-3 beta (P49841 whole entry): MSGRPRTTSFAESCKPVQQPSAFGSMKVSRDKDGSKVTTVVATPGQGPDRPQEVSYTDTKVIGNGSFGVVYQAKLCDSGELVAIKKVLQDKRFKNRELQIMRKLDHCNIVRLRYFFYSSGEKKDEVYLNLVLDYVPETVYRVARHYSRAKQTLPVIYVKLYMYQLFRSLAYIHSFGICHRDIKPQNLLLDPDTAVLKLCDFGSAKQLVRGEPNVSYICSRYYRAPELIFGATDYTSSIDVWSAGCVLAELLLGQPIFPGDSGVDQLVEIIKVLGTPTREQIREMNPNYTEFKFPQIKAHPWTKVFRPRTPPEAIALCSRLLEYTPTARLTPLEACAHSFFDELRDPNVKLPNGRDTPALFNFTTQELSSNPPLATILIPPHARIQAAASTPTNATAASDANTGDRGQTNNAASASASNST
Chain of Delta-type opioid receptor (P41143 whole entry): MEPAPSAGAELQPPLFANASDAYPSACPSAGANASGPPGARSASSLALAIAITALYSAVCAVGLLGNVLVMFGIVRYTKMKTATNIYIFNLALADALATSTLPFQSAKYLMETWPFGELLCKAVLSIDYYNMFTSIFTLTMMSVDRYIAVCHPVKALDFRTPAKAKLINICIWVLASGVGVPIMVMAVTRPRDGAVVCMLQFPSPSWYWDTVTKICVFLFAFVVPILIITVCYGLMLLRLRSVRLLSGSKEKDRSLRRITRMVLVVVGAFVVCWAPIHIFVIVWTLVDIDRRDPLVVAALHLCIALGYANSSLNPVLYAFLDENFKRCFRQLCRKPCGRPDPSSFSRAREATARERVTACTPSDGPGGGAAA
Chain of Glycogen synthase kinase-3 alpha (P49840 whole entry): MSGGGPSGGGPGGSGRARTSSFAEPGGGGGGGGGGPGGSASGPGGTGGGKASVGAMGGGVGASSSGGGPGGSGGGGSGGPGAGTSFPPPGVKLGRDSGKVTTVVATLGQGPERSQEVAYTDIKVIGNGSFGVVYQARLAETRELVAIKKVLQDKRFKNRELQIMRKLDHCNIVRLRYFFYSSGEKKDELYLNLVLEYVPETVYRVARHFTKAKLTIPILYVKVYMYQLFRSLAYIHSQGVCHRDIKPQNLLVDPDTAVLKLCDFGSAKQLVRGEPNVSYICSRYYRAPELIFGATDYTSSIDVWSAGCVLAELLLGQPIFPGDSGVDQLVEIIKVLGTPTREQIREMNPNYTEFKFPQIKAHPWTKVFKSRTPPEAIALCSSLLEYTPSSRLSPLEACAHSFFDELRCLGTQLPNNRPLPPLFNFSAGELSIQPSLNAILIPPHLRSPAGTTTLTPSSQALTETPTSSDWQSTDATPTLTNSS
Chain of Beta-arrestin-1 (P49407 whole entry): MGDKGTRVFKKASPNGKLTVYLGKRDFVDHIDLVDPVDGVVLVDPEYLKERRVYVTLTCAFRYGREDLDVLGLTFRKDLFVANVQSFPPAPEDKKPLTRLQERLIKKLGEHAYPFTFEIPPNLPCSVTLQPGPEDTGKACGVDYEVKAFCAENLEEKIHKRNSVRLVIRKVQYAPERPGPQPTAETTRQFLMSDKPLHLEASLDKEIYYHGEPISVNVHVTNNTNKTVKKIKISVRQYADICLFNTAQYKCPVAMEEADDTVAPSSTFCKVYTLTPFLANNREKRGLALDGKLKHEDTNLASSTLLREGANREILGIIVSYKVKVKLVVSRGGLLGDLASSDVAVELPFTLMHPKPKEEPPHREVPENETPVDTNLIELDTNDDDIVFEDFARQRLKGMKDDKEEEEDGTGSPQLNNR
Chain of Mu-type opioid receptor (P35372 whole entry): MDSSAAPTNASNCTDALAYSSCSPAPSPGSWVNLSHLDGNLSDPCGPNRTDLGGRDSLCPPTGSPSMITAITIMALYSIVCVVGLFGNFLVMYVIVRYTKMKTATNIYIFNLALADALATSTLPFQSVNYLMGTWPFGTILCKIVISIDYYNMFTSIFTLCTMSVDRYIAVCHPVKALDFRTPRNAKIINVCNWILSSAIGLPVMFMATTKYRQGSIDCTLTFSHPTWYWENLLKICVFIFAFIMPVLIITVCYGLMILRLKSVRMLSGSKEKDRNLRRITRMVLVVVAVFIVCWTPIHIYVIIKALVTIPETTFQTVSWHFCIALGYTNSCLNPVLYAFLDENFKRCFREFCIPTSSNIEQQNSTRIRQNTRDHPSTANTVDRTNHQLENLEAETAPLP

In general, AC50 refers to the midpoint of the concentration-response curve, whichever way the signal moves. For the compound `c1cncc(-c2nc(NCCCn3cccc3)c3ccccc3n2)c1`, the AC50 is 7.63 µM (active) in experiment [1] and 2.97 µM (active) in experiment [2].

As for `Cc1cc(C)n2nc(SCC(=O)N3CCN(c4ccccc4)CC3)nc2n1`, in the experiment on Escherichia coli, the AC50 was 106 µM (active).

As a reminder, the EC50 is the concentration giving half of the maximal effect. For orientation: IC50 means the point on the concentration scale where inhibition reaches its midpoint. As to `Cc1cc2nc3ccc(N(C)C)cc3nc2cc1N`, the 50% effective concentration (EC50) in experiment [3] was 13 µM (active); in experiment [5] it was 14.3 µM (active). The concentration at half-maximal activity (AC50) in [4] was 33.6 µM (active). The IC50 at Beta-arrestin-1 was 8.88 µM (active); in experiment [6], 34 µM (active).

Take `Br.CC1[C@H]2Cc3ccc(O)cc3[C@]1(C)CCN2CCc1ccccc1` (some centres not stated): the EC50 is 0.551 µM (active) in [7], > 0.01406 µM in experiment [8], > 92.5 µM (inactive) in experiment [9] and > 10.3 µM (inactive) at Mu-type opioid receptor.

Consider `CCOC(=O)c1ccc(NC(=O)Cn2nnc(-c3ccc(C)cc3)n2)cc1`, for which the EC50 in [10] was 158 nM (active) and 839 nM (active).

For `O=c1c2ccccc2nc(/C=C/c2cccnc2)n1Cc1ccccc1F`, the IC50 on Hexokinase-1 and on Hexokinase HKDC1 was > 80 µM (inactive) each time.

Usually CC50 stands for the concentration giving 50% cytotoxicity. Take `CN(C)S(=O)(=O)c1ccc(NC(=O)c2cc3ccccc3o2)cc1`: in experiment [11], the CC50 is > 40 µM (active). In addition, the half-maximal activity concentration (AC50) in experiment [12] is 21.1 µM (active); in experiment [13], 29.9 µM (active).

For `COc1cc(-c2nc3n(n2)C(c2ccc(F)cc2)C2=C(O)CCCC2=N3)cc(OC)c1OC` (configuration not stated), the IC50 is > 80 µM (inactive) in experiment [14], 39.1 µM (inactive) in the experiment with HEK293 [15], 31.4 µM (inactive) with HEK293 [16] and > 79 µM (inactive) in the experiment with Jurkat.
